Laboratory results from patent US10568893B2, “Methods for treating inflammation, autoimmune disorders and pain” (BRIGHAM YOUNG UNIVERSITY, priority 2013, dated 2020).

Key:
[1] = test system: TLR9 (Toll-like receptor 9); experiment: Inflammation gene regulation, mRNA q-PCR panel; format: cell-based; conditions: mRNA by q-PCR, 8 hours treatment, primary human MSC (dendritic cells also described); CSA-13 at 5.0 μM
Text: (§1) Cells were purchased from Lonza.com and used fresh for each test using recommended media and culture conditions. After treatment, mRNA was isolated using Qiagen RNeasy Mini Kit®, and quantified using a NanoDrop 2000® by UV at 260 nm and 260/280 ratio for purity. cDNA was made using a First Strand Kit® from SABiosciences and processed for real time PCR using a kit from the same company for selected analysis of wound healing pathways. Results from q-PCR were uploaded to the SABiosciences site and to Ingenuity.com web site for analysis and pathway mapping. On day 1, primary human MSC cells were plated at 200,000 cells/well using 6-well plates with 3 ml of recommended media—hMSC Basal Medium+BulletKit (50 ml Growth Supplement, 10 ml L-Glutamine and 0.5 ml Gentamicin Sulfate Amphotercin-B) for 24 hours. Only early passages of cells were used, and never from frozen stock. On day 2, cells were treated with compounds dissolved in DMSO diluted 1:1000 or more to avoid effects of the solvent. […] Treatment lasted 8 hours, and was followed by RNA isolation using QIAGEN RNeasy Mini Kit® (74104). RNA was measured at 260/280 nm using a NanoDrop 2000® and normalized to 2.4 ng per well, cDNA preparation was done using QIAGEN First Strand kit 330401. q-PCR was run as absolute quantification and threshold set at 0.1 units. Dendritic cells were plated at 500,000 cells/well using 24-well plate with 500 μl of Lonza LGM-3 Complete Growth Medium with and without compound. Treatment lasted 8 hours, and was followed by RNA isolation using QIAGEN RNeasy Mini Kit® (74104). RNA was measured at 260/280 nm using NanoDrop2000® and normalized to 2.4 ng per well, cDNA preparation was done using QIAGEN First Strand kit 330401. PCR was run as absolute quantification and threshold set at 0.1 units.

[2] = test system: TLR8 (Toll-like receptor 8); experiment: Inflammation gene regulation, mRNA q-PCR panel; format: cell-based; conditions: mRNA by q-PCR, 8 hours treatment, primary human MSC (dendritic cells also described); CSA-13 at 5.0 μM
Text: as §1

[3] = test system: NFKBIA (Nuclear factor of kappa light polypeptide gene enhancer in B-cells inhibitor, alpha); experiment: Inflammation gene regulation, mRNA q-PCR panel; format: cell-based; conditions: mRNA by q-PCR, 8 hours treatment, primary human MSC (dendritic cells also described); CSA-13 at 5.0 μM
Text: as §1

[4] = test system: TLR2 (Toll-like receptor 2); experiment: Inflammation gene regulation, mRNA q-PCR panel; format: cell-based; conditions: mRNA by q-PCR, 8 hours treatment, primary human MSC (dendritic cells also described); CSA-13 at 5.0 μM
Text: as §1

[5] = test system: IL1A (Interleukin-1 alpha); experiment: Inflammation gene regulation, mRNA q-PCR panel; format: cell-based; conditions: mRNA by q-PCR, 8 hours treatment, primary human MSC (dendritic cells also described); CSA-13 at 5.0 μM
Text: as §1

[6] = test system: TNFRSF1A (Tmor necrosis factor receptor superfamily member 1A); experiment: Inflammation gene regulation, mRNA q-PCR panel; format: cell-based; conditions: mRNA by q-PCR, 8 hours treatment, primary human MSC (dendritic cells also described); CSA-13 at 5.0 μM
Text: as §1

[7] = test system: TLR4 (Toll-like receptor 4); experiment: Inflammation gene regulation, mRNA q-PCR panel; format: cell-based; conditions: mRNA by q-PCR, 8 hours treatment, primary human MSC (dendritic cells also described); CSA-13 at 5.0 μM
Text: as §1

[8] = test system: IL1B (Interleukin-1 beta); experiment: Inflammation gene regulation, mRNA q-PCR panel; format: cell-based; conditions: mRNA by q-PCR, 8 hours treatment, primary human MSC (dendritic cells also described); CSA-13 at 5.0 μM
Text: as §1

[9] = test system: NFKB1 (Nuclear factor of kappa light polypeptide gene enhancer in B-cells 1); experiment: Inflammation gene regulation, mRNA q-PCR panel; format: cell-based; conditions: mRNA by q-PCR, 8 hours treatment, primary human MSC (dendritic cells also described); CSA-13 at 5.0 μM
Text: as §1

[10] = test system: TLR6 (Toll-like receptor 6); experiment: Inflammation gene regulation, mRNA q-PCR panel; format: cell-based; conditions: mRNA by q-PCR, 8 hours treatment, primary human MSC (dendritic cells also described); CSA-13 at 5.0 μM
Text: as §1

[11] = test system: NFKB2 (Nuclear factor of kappa light polypeptide gene enhancer in B-cells 2); experiment: Inflammation gene regulation, mRNA q-PCR panel; format: cell-based; conditions: mRNA by q-PCR, 8 hours treatment, primary human MSC (dendritic cells also described); CSA-13 at 5.0 μM
Text: as §1

[12] = test system: IRAK2 (Interleukin-1 receptor-associated kinase 2); experiment: Inflammation gene regulation, mRNA q-PCR panel; format: cell-based; conditions: mRNA by q-PCR, 8 hours treatment, primary human MSC (dendritic cells also described); CSA-13 at 5.0 μM
Text: as §1

[13] = test system: TNF (Tumor necrosis factor); experiment: Inflammation gene regulation, mRNA q-PCR panel; format: cell-based; conditions: mRNA by q-PCR, 8 hours treatment, primary human MSC (dendritic cells also described); CSA-13 at 5.0 μM
Text: as §1

alveolar bone loss = conditions: topical application; cited from earlier work

Compound	Fold Regulation TLR9 [1]	Fold Regulation TLR8 [2]	Fold Regulation NFKBIA [3]	Fold Regulation TLR2 [4]	Fold Regulation IL1A [5]	Fold Regulation TNFRSF1A [6]	Fold Regulation TLR4 [7]	Fold Regulation IL1B [8]	Fold Regulation NFKB1 [9]	Fold Regulation TLR6 [10]	Fold Regulation NFKB2 [11]	Fold Regulation IRAK2 [12]	Fold Regulation TNF [13]	Alveolar bone loss (alveolar bone loss)
CCCCCCCCOC(=O)CC[C@@H](C)[C@H]1CC[C@H]2[C@@H]3[C@H](OC(=O)CCN)C[C@@H]4C[C@H](OC(=O)CCN)CC[C@]4(C)[C@H]3C[C@H](OC(=O)CCN)[C@]12C [CSA-44]	−1.8905	−8.2256	−52.206	−15.7179	−6.0325	−2.2461	−2.977	−28.5329	−3.2891	−2.392	−2.2766	−31.8021	−25.9588	
CCCCCN(CCCCC)CCC[C@@H](C)[C@H]1CC[C@H]2[C@@H]3[C@H](OCCCN)C[C@@H]4C[C@H](OCCCN)CC[C@]4(C)[C@H]3C[C@H](OCCCN)[C@]12C [CSA-90]	−1.8613	−4.1972	−26.0352	−13.6933	−6.96	−7.3196	−3.4278	−3.6734	−4.718	−2.0885	−2.5474	−52.0069	−4.8514	
CN/C(=N/CCSCc1nc[nH]c1C)NC#N [cimetidine]														reduce alveolar bone loss
